For 1 compound, inhibition results are on record in patent US6048856A, “Heterocyclic compounds” (Novo Nordisk A/S, priority 1997, dated 2000).

This assay relates to histamine induced paw oedema. Briefly: Histamine induced paw oedema test in rats. The conditions noted are these: Rattus norvegicus, ip; intraperitoneal, 15 minutes before anaesthetics; paw swelling 20 minutes after histamine 50 microliter. In kind it is in vivo, male Sprague-Dawley rats. On the procedure: Compounds of formula I may be used to treat all painful, hyperalgesic and/or inflammatory conditions in which C-fibres play a pathophysiological role by eliciting neurogenic pain or inflammation, i.e.:
I. Histamine Induced Paw Oedema
The rat histamine paw oedema test was performed essentially as described by Amann et al. (Europ. J. Pharmacol. 279, 227-231, 1995). In brief 250-300 g male Sprague-Dawley rats were anaesthetized with pentobarbital sodium, and placed on a 32 degree Celsius heated table. Ten minutes later histamine (50 micoliter, 3 mg/ml) was injected in the right hind paw and 20 minutes hereafter the paw swelling was determined by water plethysmography (Ugo Basile). Test compounds were administered intraperitoneally at 15 minutes before the anaesthetics.
Values for inhibition of histamine induced oedema response for some representative compounds are recorded in table 1.

Molecules are shown by their SMILES. Where a name gives a salt, the structure may show the parent alone.

`N#CC(c1ccccc1)C1CCN(CCC=C2c3ccccc3CCc3ccccc32)CC1` (stereo not shown) [Example 5, 2-(1-(3-(10,11-Dihydro-5H-dibenzo[a,d]cyclohepten-5-ylidene)-1-propyl)-4-piperidyl)-2-phenylacetonitrile hydrochloride] returned an inhibition at 1 mg/kg of 30%.
